One block for each compound: values may come before it.
Tests used:
[1] = Sedative effects (statement); type: in vivo; settings: in contrast to the antihistamines in present use
[2] = Pharmacokinetic studies comparing relative distribution in brain and plasma; type: in vivo; settings: rodents
H1 histamine receptor = molecular target: T1, H1 histamine receptor (Cavia porcellus, UniProt P31389); assay: Antihistaminic activity: antagonism of histamine concentration-response curves in isolated guinea-pig ileum longitudinal muscle (Schild plot); type: cell-based; settings: negative log of the antagonist concentration shifting the histamine control curve 2X to the right; one hour incubation; read-out: pA2 (converted)
T1 construct: The longitudinal muscle was isolated from the intact ileum of guinea-pigs; from tissue; host or cells: guinea-pig (Hartley, male) ileum longitudinal muscle
T1 sequence (P31389 whole entry): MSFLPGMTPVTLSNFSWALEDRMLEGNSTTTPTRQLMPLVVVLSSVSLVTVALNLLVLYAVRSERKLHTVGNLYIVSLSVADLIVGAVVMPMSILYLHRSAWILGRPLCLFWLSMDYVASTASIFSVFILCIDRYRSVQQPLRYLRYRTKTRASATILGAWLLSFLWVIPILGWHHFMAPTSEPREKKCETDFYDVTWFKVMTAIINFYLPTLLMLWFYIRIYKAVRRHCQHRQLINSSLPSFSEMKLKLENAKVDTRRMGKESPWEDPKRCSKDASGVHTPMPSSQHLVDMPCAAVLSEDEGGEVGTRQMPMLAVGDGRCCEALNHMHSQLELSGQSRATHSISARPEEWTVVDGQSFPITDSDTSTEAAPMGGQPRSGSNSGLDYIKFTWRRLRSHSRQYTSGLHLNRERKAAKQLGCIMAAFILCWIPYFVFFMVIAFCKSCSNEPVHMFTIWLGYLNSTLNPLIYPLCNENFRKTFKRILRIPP
Method: The longitudinal muscle was isolated from the intact ileum of guinea-pigs (Hartley, male 250-400 g) and placed in an organ bath under 300 mg tension. After one hour of equilibration, cumulative concentration-response curves (Van Rossum, J. M., Arch. Int. Pharmacodyn. Ther. 143, 299-330, 1963) to histamine were obtained. Following washing, the tissues were incubated for one hour with the test compound and then a second histamine concentration-response curve was run. Shifts to the right of the agonist concentration-response curve produced by the antagonists were used to construct Schild plots (Arunlakshana, O. and Schild, H. O., Br. J. Pharmacol: 14, 48-58, 1959). Regression of Log (dr-1) on Log [B], where dr is an equiactive response in the presence and absence of antagonist and [B] is the molar concentration of antagonist, allowed an estimate of pA2, i.e. the negative log of the concentration of antagonist which shifts the control histamine concentration-response curve 2X to the right.

[3] = Anticholinergic activity / side effects (statement); settings: in contrast to the antihistamines in present use
[4] = tested on: H1 histamine receptor sites; assay: Binding to H1 histamine receptor sites (statement); set-up: species or system mammals including humans
[5] = clinical use; cited from earlier work
[6] = human, in vivo; cited from earlier work
[7] = antihistamines now in use; cited from earlier work

Kb (H1 histamine receptor): 0.0398 nM
SMILES: O=C(O)/C=C/c1cccc(/C(=C/CN2CCCC2)c2ccc(C(F)(F)F)cc2)n1 [Compound of Formula (I), (E)-3-{6-[3-Pyrrolidino-1(4-Trifluoromethylphenyl)prop-1E-enyl]-2-pyridyl}acrylic acid]
sedating effect [1]: essentially not sedating
brain penetration [2]: does not readily penetrate the brains of rodents
anticholinergic side effects [3]: little or no anticholinergic side effects
binding to H1 histamine receptor sites [4]: binds competitively to the H1 histamine receptor sites

Kb (H1 histamine receptor): 0.0794 nM
SMILES: Cc1ccc(/C(=C\CN2CCCC2)c2ccccn2)cc1 [Triprolidine, (E)-1-(4-methylphenyl)-1-(2-pyridyl)-3-pyrrolidinoprop-1-ene]
antihistamine potency [5]: one of the most potent antihistamines available
sedation and drowsiness [6]: produces sedation and drowsiness in varying degrees in most patients
anticholinergic activity [7]: varying degrees of anticholinergic activity

SMILES: CC(CN1c2ccccc2Sc2ccccc21)N(C)C (centres unmarked) [promethazine]
anticholinergic activity [7]: varying degrees of anticholinergic activity

SMILES: COc1ccc(CN(CCN(C)C)c2ccccn2)cc1 [pyrilamine]
anticholinergic activity [7]: varying degrees of anticholinergic activity

From US4584382A, “Pyridyl acrylate compound” (priority 1984, dated 1986)
